Read-outs that look alike come from different tables or passages of the source.
Assays:
[1] = Turbidity, derived count rate of scattered light; assay type: physicochemical; settings: for Log Count Rate: log of derived count rate; for Count Rate: turbidity; for Count Rate / Zeta Count Rate / kcps: derived count rate of scattered light; for Zeta Count Rate / kcps: mean
Summary of the method: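 Samples: 1 mg/mL in PBS pH 7.4 (from DMSO), 1 d at RT, then diluted in 1 mM KCl immediately before measurement. Triplicates, two independent runs averaged.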

[2] = test system: HIV-1 infection of TZM-bl cells; assay: HIV-1 infectivity enhancement assay, β-galactosidase luminescence; assay type: cell-based; settings: for Absolute Infectivity / RLU /s (Feb2021): unrounded values of the 1.3 µM column; for Rel-to EFC / n-fold to virus: Fig S8 panels B, D; for Rel-to EFC: infectivity enhancement relative to EF-C; for Log10 Inf. rel. to EF-C: log10 of HIV-1 infection of TZM-bl cells relative to EF-C, Fig S15 source data, asymmetric std dev errors
[3] = Zeta-potential measurement; assay type: physicochemical; settings: for Zeta Pot. / mV: mean; for Zeta-pot. / mV: zeta potential of peptide, Fig S15 source data
Summary of the method: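 Aggregates: 1 mg/mL peptide, PBS pH 7.4, 1 d RT; dilute in KCl (1 mM, aq); measure mobility → zeta via Smoluchowski.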

[4] = Fig S8 panels A, C, asymmetric log errors
[5] = Feb2021, 1.3 µM value relative to virus only (0 µM)
[6] = Feb2021, log10 of infectivity relative to EF-C
[7] = Feb2021, n-fold infectivity relative to EF-C
[8] = infectivity n-fold relative to virus alone
[9] = infectivity class (low / medium / high) of each library peptide, main list in c1-c6, same classes repeated in sub-lists of sequences containing the hydrophobicity/charge patterns P+,H0,P+,H0,P0,H0,P0, P+,H0,P0,H0,P0,H0,P0, P+,H0,P0,H0
[10] = category 1 or 0 from count rate, key not given
[11] = std deviation in separate column
[12] = Feb2021, Log10 of infectivity relative to EF-C
[13] = Feb2021, n-fold enhancement relative to EF-C
[14] = Feb2021 run, infectivity n-fold relative to virus alone
[15] = Feb2021 run, log10 of infectivity relative to EF-C
[16] = Feb2021 run, n-fold infectivity relative to EF-C

Substance	Log Count Rate [1, 4]	Zeta Count Rate Category ([1]; category 1/0, no key printed)	Zeta Count Rate / kcps ([1]; std deviation in next column) [kcps]	n-fold to virus (Feb2021) [2, 5]	Rel-to EFC (Feb-2021) [2, 7]	Absolute Infectivity / RLU /s (Feb2021) ([2]; Feb2021) [RLU /s]	infectivity [2, 9]	Log10 Inf. rel. to EF-C [2]	Zeta category ( +1 = if > 4 mV;-1 = if < -4 mV; 0 = -4mV to 4 mV) [3]	Zeta Pot. / mV ([3]; Std Zeta in next column) [mV]	Zeta-pot. / mV [3] [mV]	Zeta Count Rate Category [1, 10]	Zeta Count Rate / kcps [1, 11] [kcps]	Log10 of Rel to EFC (Feb2021) [2, 12]	Rel-to EFC (Feb-2021) [2, 13]	n-fold to virus (Feb2021) [2, 14]	Log10 of Rel to EFC (Feb2021) [2, 15]	Rel-to EFC (Feb-2021) [2, 16]	Zeta category ( +1 = if > 4 mV;-1 = if < -4 mV; 0 = -4mV to 4 mV) ([3]; category from zeta potential)	Zeta Pot. / mV ([3]; Std in separate column) [mV]	other results
CKWKWQW [KB4]	3.876	1	7511	10.67	0.254	6760	medium	-0.5951	1 (+1 = if > 4 mV)	14.7	14.7										Log Count Rate ([1]; Fig S8 panels B, D): 3.876; Count Rate ([1]; Fig S8 panels B, D): 7511.27; Log10 of Rel to EFC (Feb2021) [2, 6]: -0.5951; Rel-to EFC [2]: 0.254; n-fold to virus [2, 8]: 10.67
CQFQFQF [QBL4]	3.899	1	7929	14.84	0.3533	7570	medium	-0.4519	-1 (-1 = if < -4 mV)	-24.8	-24.8										Log Count Rate ([1]; Fig S8 panels B, D): 3.899; Count Rate ([1]; Fig S8 panels B, D): 7928.97; Log10 of Rel to EFC (Feb2021) [2, 6]: -0.4519; Rel-to EFC [2]: 0.3533; n-fold to virus [2, 8]: 14.84
CKAKAQANM [BL9]		1	207.3	1.316	0.03133	430	low	-1.504	-1 (-1 = if < -4 mV)	-7.773	-7.773	1	207.3	-1.504	0.03133	1.316	-1.504	0.03133	-1 (-1 = if < -4 mV)	-7.773	
RGDCKIKIQINM [TM45]			1623				medium	-0.6272	1 (+1 = if > 4 mV)	11.3	11.3	1	1623	-0.6272	0.2359	9.913	-0.6272	0.2359	1 (+1 = if > 4 mV)	11.3	
CKAKAQA [TM155]		1	362.7	1.325	0.03153	1740	low	-1.501	-1 (-1 = if < -4 mV)	-8.01	-8.01	1	362.7	-1.501	0.03153	1.325	-1.501	0.03153	-1 (-1 = if < -4 mV)	-8.01	infectivity ([2]; infectivity class (low / medium / high) of the peptide in the sequence-pattern analysis, Fig. S22-A4, class limits not given): low
CKAKAQANMWQ [BL8]	0.9528	0	8.967	1.837	0.04371	600	low	-1.359	0 (0 = -4mV to 4 mV)	0.7373	0.7373	0	8.967	-1.359	0.04371	1.837	-1.359	0.04371	0 (0 = -4mV to 4 mV)	0.7373	Log Count Rate ([1]; Fig S8 panels B, D): 0.9528; Count Rate ([1]; Fig S8 panels B, D): 8.97; Rel-to EFC [2]: 0.04371; n-fold to virus [2, 8]: 1.837

From publication PMC10447463, “Data-mining unveils structure–property–activity correlation of viral infectivity enhancing self-assembling peptides” (Nature Communications, 2023)
